Values of other authors, collected in patent publication US8187800B2, “Methods for selecting active agents for cancer treatment” (Precision Therapeutics, Inc., priority 2007, dated 2012).

System: breast cancer
Conditions: neoadjuvant therapy in breast cancer patients; 4 cycles FEC, then 4 cycles docetaxel

SMILES: CC(=O)O[C@@]12CO[C@@H]1C[C@H](O)[C@@]1(C)C(=O)[C@H](O)C3=C(C)[C@@H](OC(=O)[C@H](O)[C@@H](NC(=O)OC(C)(C)C)c4ccccc4)C[C@@](O)([C@@H](OC(=O)c4ccccc4)[C@H]21)C3(C)C [docetaxel]
- overall clinical response: 75%
